14 compounds from patent US20230322846A9, “NEUROACTIVE STEROIDS AND THEIR METHODS OF USE” (SAGE THERAPEUTICS, INC., priority 2018, published 2023) can be followed below.

The target of assay [1] is [35S]-TBPS binding, rat brain cortical membranes. The experiment in a line: Steroid inhibition of [35S]-TBPS binding. To be noted: 3 nM [35S]-TBPS, in the presence of 5 mM GABA. Put shortly: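 Rat cortical P2 membranes incubated 90 min at room temperature with 3 nM [35S]-TBPS, […] and test compound (0.5% DMSO final) in NaCl/Na–K phosphate pH 7.4; nonspecific binding with […]. Filter-bound radioactivity counted; IC50 and Imax from nonlinear fits, mean ± SEM.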

In assay [2] the target is human GABAA receptors composed of the α1β2γ2 subunits (Homo sapiens (Human), UniProt P14867+P18507+P47870). The experiment in a line: α1β2γ2 SyncroPatch automated patch clamp assay. Type of assay: cell-based. The note with it: for EC50: HEK cells, potentiation of submaximal GABA current, clamped at −120 mV; for α1β2γ2 EMAX: peak current after GABA+compound divided by peak current after GABA alone. The method, then:
(§1) The SyncroPatch 384PE (Nanion, Germany) automated patch clamp platform was used to obtain recordings from human embryonic kidney cells stably expressing human GABAA receptors composed of the α1β2γ2 and α4β3δ subunits. Cells were bathed in an extracellular solution containing: 140 mM NaCl, 4 mM KCl, 2 mM CaCl2), 1 mM MgCl2, 10 mM HEPES, 5 mM glucose and 0.1% DMSO. Solution was maintained at pH 7.4 with NaOH and 300 mOsm/L. Chips with multi-hole (4×) medium resistance (2-3M) are used for the recombinant cell line experiments. Once harvested, cells are stored in extracellular solution set to 10° C. in the cell hotel with a minimum shaking speed of 200 rpm before addition to the chip at the beginning of each experiment. Whole cell patch clamp recordings were made using an intracellular solution containing: 90 mM KCl, 50 mM KF, 1.5 mM MgCl2, 11.1 mM EGTA and 10 mM HEPES, 2 mM NaATP, maintained at pH 7.2 with KOH. Currents are leak corrected (using P/2 leak correction protocol) and sampled at 5 kHz. Cells were clamped at −120 mV. After establishing a stable baseline, a submaximal concentration of GABA (3-5 μM for cells expressing α1β2γ2 and 10 μM for cells expressing […]) was applied at a rate of 10 μl/second, immediately followed by application of GABA+compound (10 μl/second) at a single concentration of compound per cell. Compounds were tested at six concentrations (0.029, 0.12, 0.47, 1.88, 7.5, and 30 μM) in n=8-12 cells per concentration. Compound effect was determined by dividing peak current amplitude after GABA+compound by peak current amplitude after GABA alone. EC50 and Emax values were determined from average values for each concentration.
Background: In patch-clamp work, channel activity is measured electrically.

In assay [3] the target is human GABAA receptors composed of the α4β3δ subunits (Homo sapiens (Human), UniProt O14764+P28472+P48169). Kind of assay: α4β3δ SyncroPatch automated patch clamp assay. The class given is cell-based. To be noted: for EC50: HEK cells, potentiation of submaximal GABA current, clamped at −120 mV; for α4β3δ EMAX: peak current after GABA+compound divided by peak current after GABA alone. The method, then:
as §1

In general, IC50 refers to the concentration at which inhibition is half-maximal. By EC50 is commonly meant the concentration at which the effect is half-maximal.

Chain of human GABAA receptors composed of the α1β2γ2 subunits (P14867 28-456 limits assumed): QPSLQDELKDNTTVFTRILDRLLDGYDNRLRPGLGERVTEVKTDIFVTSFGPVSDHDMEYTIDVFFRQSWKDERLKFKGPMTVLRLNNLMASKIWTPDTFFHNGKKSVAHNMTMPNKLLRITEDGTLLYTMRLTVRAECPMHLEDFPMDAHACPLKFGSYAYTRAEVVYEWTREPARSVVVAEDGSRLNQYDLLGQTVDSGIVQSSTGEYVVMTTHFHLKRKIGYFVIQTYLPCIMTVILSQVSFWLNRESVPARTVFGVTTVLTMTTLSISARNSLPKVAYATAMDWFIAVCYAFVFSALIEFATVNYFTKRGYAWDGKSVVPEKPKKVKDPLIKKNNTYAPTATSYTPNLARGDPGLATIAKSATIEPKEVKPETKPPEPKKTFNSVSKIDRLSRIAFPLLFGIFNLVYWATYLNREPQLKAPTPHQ
Chain of human GABAA receptors composed of the α1β2γ2 subunits (P47870 25-512 limits assumed): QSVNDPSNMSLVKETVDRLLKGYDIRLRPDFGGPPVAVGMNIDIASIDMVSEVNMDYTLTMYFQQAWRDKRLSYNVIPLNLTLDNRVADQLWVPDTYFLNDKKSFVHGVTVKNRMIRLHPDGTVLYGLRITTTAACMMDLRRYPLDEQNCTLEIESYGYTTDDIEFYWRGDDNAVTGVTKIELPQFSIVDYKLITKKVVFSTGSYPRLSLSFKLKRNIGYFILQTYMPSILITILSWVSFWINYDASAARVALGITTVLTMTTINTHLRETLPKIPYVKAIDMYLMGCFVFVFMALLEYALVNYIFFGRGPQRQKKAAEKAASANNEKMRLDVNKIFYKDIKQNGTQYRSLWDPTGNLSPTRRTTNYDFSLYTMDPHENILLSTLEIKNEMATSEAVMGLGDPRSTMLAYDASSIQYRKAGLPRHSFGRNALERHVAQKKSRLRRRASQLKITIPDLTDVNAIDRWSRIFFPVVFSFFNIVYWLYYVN
Chain of human GABAA receptors composed of the α1β2γ2 subunits (P18507 40-475 limits assumed): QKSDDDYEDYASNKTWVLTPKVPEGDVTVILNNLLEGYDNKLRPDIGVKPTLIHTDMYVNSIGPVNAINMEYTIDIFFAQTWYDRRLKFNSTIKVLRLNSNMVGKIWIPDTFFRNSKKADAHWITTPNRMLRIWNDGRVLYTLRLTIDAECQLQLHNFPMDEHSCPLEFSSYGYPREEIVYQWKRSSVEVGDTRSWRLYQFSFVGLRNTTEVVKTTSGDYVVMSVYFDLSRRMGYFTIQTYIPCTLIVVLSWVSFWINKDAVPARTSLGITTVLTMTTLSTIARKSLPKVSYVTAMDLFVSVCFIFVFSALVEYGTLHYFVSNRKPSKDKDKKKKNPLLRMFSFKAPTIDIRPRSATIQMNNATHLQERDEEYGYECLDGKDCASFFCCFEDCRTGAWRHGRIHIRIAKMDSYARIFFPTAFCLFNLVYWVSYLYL
Chain of human GABAA receptors composed of the α4β3δ subunits (P48169 36-554 limits assumed): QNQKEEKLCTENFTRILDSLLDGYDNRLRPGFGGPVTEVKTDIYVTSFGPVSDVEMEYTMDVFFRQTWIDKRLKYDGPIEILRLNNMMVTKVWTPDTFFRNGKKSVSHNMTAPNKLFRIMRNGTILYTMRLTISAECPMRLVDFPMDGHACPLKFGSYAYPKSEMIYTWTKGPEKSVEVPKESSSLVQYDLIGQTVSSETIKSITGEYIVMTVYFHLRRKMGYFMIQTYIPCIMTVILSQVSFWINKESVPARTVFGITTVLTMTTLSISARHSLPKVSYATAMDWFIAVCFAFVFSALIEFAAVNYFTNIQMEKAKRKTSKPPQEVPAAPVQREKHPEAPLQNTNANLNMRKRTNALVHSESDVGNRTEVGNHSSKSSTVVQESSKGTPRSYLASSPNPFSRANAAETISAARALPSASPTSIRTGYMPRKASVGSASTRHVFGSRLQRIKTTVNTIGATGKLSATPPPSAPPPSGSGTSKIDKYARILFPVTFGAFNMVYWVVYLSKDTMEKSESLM
Chain of human GABAA receptors composed of the α4β3δ subunits (P28472 26-473 limits assumed): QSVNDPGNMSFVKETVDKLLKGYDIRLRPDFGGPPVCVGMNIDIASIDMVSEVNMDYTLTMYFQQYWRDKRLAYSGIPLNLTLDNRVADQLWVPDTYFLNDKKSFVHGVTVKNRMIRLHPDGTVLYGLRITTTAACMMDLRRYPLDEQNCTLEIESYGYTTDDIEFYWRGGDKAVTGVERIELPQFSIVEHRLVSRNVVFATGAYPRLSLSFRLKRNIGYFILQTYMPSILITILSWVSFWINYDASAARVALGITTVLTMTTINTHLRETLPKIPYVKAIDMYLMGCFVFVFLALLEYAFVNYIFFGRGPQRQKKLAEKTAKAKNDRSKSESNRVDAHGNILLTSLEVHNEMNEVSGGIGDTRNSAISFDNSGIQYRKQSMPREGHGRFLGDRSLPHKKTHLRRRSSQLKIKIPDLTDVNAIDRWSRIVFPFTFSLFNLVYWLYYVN
Chain of human GABAA receptors composed of the α4β3δ subunits (O14764 17-452 limits assumed): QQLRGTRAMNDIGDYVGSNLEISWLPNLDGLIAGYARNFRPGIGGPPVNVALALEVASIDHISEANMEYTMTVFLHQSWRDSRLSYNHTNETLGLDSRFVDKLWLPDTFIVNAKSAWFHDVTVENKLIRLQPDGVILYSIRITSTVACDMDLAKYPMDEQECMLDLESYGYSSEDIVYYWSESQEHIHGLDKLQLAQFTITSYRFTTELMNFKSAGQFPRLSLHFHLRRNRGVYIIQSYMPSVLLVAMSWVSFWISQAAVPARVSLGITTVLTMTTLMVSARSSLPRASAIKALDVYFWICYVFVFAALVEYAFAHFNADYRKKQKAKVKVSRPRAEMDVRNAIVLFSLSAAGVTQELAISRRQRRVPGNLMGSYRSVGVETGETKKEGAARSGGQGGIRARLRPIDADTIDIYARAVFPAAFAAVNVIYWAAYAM

With `C[C@H](Cc1cncc(C#N)c1)[C@H]1CC[C@H]2[C@@H]3CC[C@@H]4C[C@](C)(O)CC[C@@H]4[C@H]3CC[C@]12C` [Example 406, 5-((R)-2-((3R,5R,8R,9R,10S,13R,14S,17R)-3-hydroxy-3,13-dimethylhexadecahydro-1H-cyclopenta[a]phenanthren-17-yl)propyl)nicotinonitrile], the IC50 in assay [1] was under 100 nM. Besides, in assay [2], the EC50 is under 200 nM and the “α1β2γ2 EMAX” value is listed as “A (A indicates an Emax response <8)”. For the same compound, in assay [3], the EC50 was under 200 nM and the “α4β3δ EMAX” value is “B (B indicates an Emax response 30 to <45)”.

`CCOC[C@@]1(O)CC[C@H]2[C@H](CC[C@@H]3[C@@H]2CC[C@]2(C)[C@@H]([C@H](C)Cn4nccc4C#N)CC[C@@H]32)C1` [Example 286, 1-((S)-2-((3R,5R,8R,9R,10S,13S,14S,17R)-3-(ethoxymethyl)-3-hydroxy-13-methylhexadecahydro-1H-cyclopenta[a]phenanthren-17-yl)propyl)-1H-pyrazole-5-carbonitrile]: in assay [1], the IC50 is under 100 nM. In assay [2], the EC50 is under 200 nM and the “α1β2γ2 EMAX” value is recorded as “B (B indicates an Emax response 8 to <10)”. In assay [3], the EC50 lay within 200 to 1000 nM and the “α4β3δ EMAX” value is “A (A indicates an Emax response <30)”.

For the compound `CCOC[C@@]1(O)CC[C@H]2[C@H](CC[C@@H]3[C@@H]2CC[C@]2(C)[C@@H]([C@@H](C)Nc4cccc(N5CCCC5=O)n4)CC[C@@H]32)C1` [Example 263], the 50% inhibitory concentration (IC50) in assay [1] was under 100 nM. For the same compound, in assay [2], the EC50 was 200 to 1000 nM and the “α1β2γ2 EMAX” value was “A (A indicates an Emax response <8)”. Also, in assay [3], the EC50 is 200 to 1000 nM and the “α4β3δ EMAX” value is reported as “A (A indicates an Emax response <30)”.

For `C[C@@H](Cc1nc(C(F)(F)F)cs1)[C@H]1CC[C@H]2[C@@H]3CC[C@@H]4C[C@](C)(O)CC[C@]4(C)[C@H]3CC[C@]12C` [Example 453], the IC50 in assay [1] was under 100 nM. Also, in assay [2], the EC50 was 200 to 1000 nM and the “α1β2γ2 EMAX” value was “A (A indicates an Emax response <8)”. Moreover, in assay [3], the EC50 is under 200 nM and the “α4β3δ EMAX” value is “A (A indicates an Emax response <30)”.

Consider `CCOC[C@@]1(O)CC[C@H]2[C@H](CC[C@@H]3[C@@H]2CC[C@]2(C)[C@@H]([C@@H](C)Cc4cccc(C#N)n4)CC[C@@H]32)C1` [Example 413], for which the IC50 in assay [1] was under 100 nM. In assay [2], the EC50 was under 200 nM and the “α1β2γ2 EMAX” value was “C (C indicates an Emax response ≥10)”. For the same compound, in assay [3], the EC50 is under 200 nM and the “α4β3δ EMAX” value is given as “B (B indicates an Emax response 30 to <45)”.

Take `CC[C@@]1(O)CC[C@@]2(C)[C@H](CC[C@@H]3[C@@H]2CC[C@]2(C)[C@@H]([C@@H](C)Cn4ccc(C#N)n4)CC[C@@H]32)C1` [Example 61, 1-((R)-2-((3R,5R,8R,9S,10S,13S,14S,17R)-3-ethyl-3-hydroxy-10,13-dimethylhexadecahydro-1H-cyclopenta[a]phenanthren-17-yl)propyl)-1H-pyrazole-3-carbonitrile]: in assay [1], the IC50 is under 100 nM. Besides, in assay [2], the EC50 is under 200 nM and the “α1β2γ2 EMAX” value is on record as “C (C indicates an Emax response ≥10)”. Further, in assay [3], the half-maximal effective concentration (EC50) is under 200 nM and the “α4β3δ EMAX” value was “A (A indicates an Emax response <30)”.

As for `CC(C)C[C@@]1(O)CC[C@H]2[C@H](CC[C@@H]3[C@@H]2CC[C@]2(C)[C@@H]([C@@H](C)Cn4cc(C#N)cn4)CC[C@@H]32)C1` [Example 299, 1-((R)-2-((3S,5R,8R,9R,10S,13S,14S,17R)-3-hydroxy-3-isobutyl-13-methylhexadecahydro-1H-cyclopenta[a]phenanthren-17-yl)propyl)-1H-pyrazole-4-carbonitrile], the IC50 in assay [1] was under 100 nM. The EC50 in assay [2] was at least 1000 nM. Moreover, in assay [3], the EC50 is under 200 nM and the “α4β3δ EMAX” value is “B (B indicates an Emax response 30 to <45)”.

Consider `CCCC[C@@]1(O)CC[C@H]2[C@H](CC[C@@H]3[C@@H]2CC[C@]2(C)[C@@H]([C@@H](C)Cn4cc(C#N)cn4)CC[C@@H]32)C1` [Example 311, 1-((R)-2-((3R,5R,8R,9R,10S,13S,14S,17R)-3-butyl-3-hydroxy-13-methylhexadecahydro-1H-cyclopenta[a]phenanthren-17-yl)propyl)-1H-pyrazole-4-carbonitrile], for which the IC50 in assay [1] was under 100 nM. In assay [2], the EC50 is under 200 nM and the “α1β2γ2 EMAX” value is given as “C (C indicates an Emax response ≥10)”. Besides, in assay [3], the EC50 was 200 to 1000 nM and the “α4β3δ EMAX” value is on record as “B (B indicates an Emax response 30 to <45)”.

With `C[C@@H](Cn1cc(C#N)cn1)[C@H]1CC[C@H]2[C@@H]3CC[C@@H]4C[C@@](O)(CC5CC5)CC[C@@H]4[C@H]3CC[C@]12C` [Example 303, 1-((R)-2-((3S,5R,8R,9R,10S,13S,14S,17R)-3-(cyclopropylmethyl)-3-hydroxy-13-methylhexadecahydro-1H-cyclopenta[a]phenanthren-17-yl)propyl)-1H-pyrazole-4-carbonitrile], the IC50 in assay [1] was under 100 nM. Further, in assay [2], the EC50 was under 200 nM and the “α1β2γ2 EMAX” value was “C (C indicates an Emax response ≥10)”. Moreover, in assay [3], the EC50 was under 200 nM and the “α4β3δ EMAX” value was “B (B indicates an Emax response 30 to <45)”.

For `CCC[C@@]1(O)CC[C@H]2[C@H](CC[C@@H]3[C@@H]2CC[C@]2(C)[C@@H]([C@@H](C)Cc4ccc(C#N)nc4)CC[C@@H]32)C1` [Example 401, 5-((S)-2-((3R,5R,8R,9R,10S,13R,14S,17R)-3-hydroxy-13-methyl-3-propylhexadecahydro-1H-cyclopenta[a]phenanthren-17-yl)propyl)picolinonitrile], the IC50 in assay [1] is under 100 nM. Moreover, in assay [2], the EC50 is at least 1000 nM and the “α1β2γ2 EMAX” value is recorded as “C (C indicates an Emax response ≥10)”. In assay [3], the EC50 is at least 1000 nM and the “α4β3δ EMAX” value is given as “A (A indicates an Emax response <30)”.

`CCC[C@@]1(O)CC[C@@]2(C)[C@H](CC[C@H]3[C@@H]4CC[C@H](C(C)Cn5cc(C#N)cn5)[C@@]4(C)CC(=O)[C@@H]32)C1` (stereo in doubt) [Example 339, 1-((S)-2-((3R,5R,8S,9S,10S,13S,14S,17R)-3-hydroxy-10,13-dimethyl-11-oxo-3-propylhexadecahydro-1H-cyclopenta[a]phenanthren-17-yl)propyl)-1H-pyrazole-4-carbonitrile]: the IC50 in assay [1] was under 100 nM. Moreover, in assay [2], the EC50 is at least 1000 nM and the “α1β2γ2 EMAX” value was “C (C indicates an Emax response ≥10)”. In addition, in assay [3], the EC50 is under 200 nM and the “α4β3δ EMAX” value is “C (C indicates an Emax response ≥45)”.

For the compound `CCOC[C@@]1(O)CC[C@H]2[C@H](CC[C@@H]3[C@@H]2CC[C@]2(C)[C@@H]([C@H](CC)Cn4ccc(C#N)n4)CC[C@@H]32)C1` [Example 499, 1-((S)-2-((3R,5R,8R,9R,10S,13S,14S,17R)-3-(ethoxymethyl)-3-hydroxy-13-methylhexadecahydro-1H-cyclopenta[a]phenanthren-17-yl)butyl)-1H-pyrazole-3-carbonitrile], the IC50 in assay [1] is under 100 nM. Moreover, in assay [2], the EC50 is under 200 nM and the “α1β2γ2 EMAX” value was “A (A indicates an Emax response <8)”. For the same compound, in assay [3], the EC50 is under 200 nM and the “α4β3δ EMAX” value is recorded as “A (A indicates an Emax response <30)”.

With `C[C@@H](Cc1cncc(C#N)c1)[C@H]1CC[C@H]2[C@@H]3CC[C@@H]4C[C@](C)(O)CC[C@@H]4[C@H]3CC[C@]12C` [Example 407, 5-((S)-2-((3R,5R,8R,9R,10S,13R,14S,17R)-3-hydroxy-3,13-dimethylhexadecahydro-1H-cyclopenta[a]phenanthren-17-yl)propyl)nicotinonitrile], in assay [1], the IC50 was under 100 nM. Besides, in assay [2], the EC50 was under 200 nM and the “α1β2γ2 EMAX” value was “C (C indicates an Emax response ≥10)”. In assay [3], the EC50 was at least 1000 nM and the “α4β3δ EMAX” value is “C (C indicates an Emax response ≥45)”.

Take `Cc1cnc(C[C@H](C)[C@H]2CC[C@H]3[C@@H]4CC[C@@H]5C[C@](C)(O)CC[C@@H]5[C@H]4CC[C@]23C)s1` [Example 430]: the IC50 in assay [1] fell in the range of 100 to 1000 nM. Further, in assay [2], the EC50 was in the range of 200 to 1000 nM and the “α1β2γ2 EMAX” value is reported as “B (B indicates an Emax response 8 to <10)”. Also, in assay [3], the EC50 was under 200 nM and the “α4β3δ EMAX” value is “A (A indicates an Emax response <30)”.
